This passage reports IC50 results from ChEMBL document CHEMBL4342418, “1,2,3-Triazole-containing hybrids as potential anticancer agents: Current developments, action mechanisms and structure-activity relationships” (Eur J Med Chem, 2019).

The term IC50 denotes the concentration needed to halve the response being measured.

Holding throughout (assay type): functional, cell-based
The test system of assay [1] is A549. Description: Antiproliferative activity against human A549 cells assessed as reduction in cell viability after 24 hrs by MTT assay. The settings on record: A549, 24 h.
The next assay concerns MDA-MB-231. Description: Antiproliferative activity against human MDA-MB-231 cells assessed as reduction in cell viability after 24 hrs by MTT assay. The conditions noted are these: MDA-MB-231, 24 h. (In general: Formazan colour is commonly taken as a measure of viable cells.)
A further assay relates to PC-3. Description: Antiproliferative activity against human PC3 cells assessed as reduction in cell viability after 24 hrs by MTT assay. The settings on record: PC-3, 24 h.
For a further assay, the system named is COLO 205. Description: Antiproliferative activity against human COLO205 cells assessed as reduction in cell viability after 24 hrs by MTT assay. The conditions noted are these: COLO 205, 24 h.
The next assay relates to A-431. Description: Antiproliferative activity against human A431 cells assessed as reduction in cell viability after 24 hrs by MTT assay. The conditions noted are these: A-431, 24 h.
The test system of the next assay is K562. Description: Antiproliferative activity against human K562 cells assessed as reduction in cell viability after 24 hrs by MTT assay. The settings on record: K562, 24 h.
For another assay, the system named is P388. Description: Antiproliferative activity against mouse P388 cells by MTT assay.
The next assay deals with Lu1. Description: Antiproliferative activity against human Lu1 cells by MTT assay.
The next assay has as its system MCF7. Description: cells. The settings on record: Homo sapiens.
The next assay relates to HL-60. Description: Antiproliferative activity against human HL60 cells by MTT assay.
In a further assay the test system is HeLa. Description: Antiproliferative activity against human HeLa cells by MTT assay.
For assay [2], the system named is A549. Description: cells. The conditions noted are these: Homo sapiens.
Description: Antiproliferative activity against human A549 cells by MTT assay

Description for MCF7: Antiproliferative activity against human MCF7 cells by MTT assay

With `CC(=O)c1cccc(-n2cc(CO[C@H]3O[C@@H]4O[C@@]5(C)CC[C@H]6[C@H](C)CC[C@@H]([C@H]3C)[C@@]46OO5)nn2)c1`, the IC50 in the assay with A549 [1], with MDA-MB-231, in the assay on PC-3, in the assay on COLO 205, in the assay with A-431 and in the assay with K562 was 4.06 to 89.9 µM each time.
For `CCN(CC)C(=O)c1ccc(-n2cc(CO[C@H]3O[C@@H]4O[C@@]5(C)CC[C@H]6[C@H](C)CC[C@@H]([C@H]3C)[C@@]46OO5)nn2)cc1`, the IC50 in the assay with P388, in the assay with Lu1, in the assay on MCF7 and with HL-60 was 2.5 to 176 µM each time.
As for `CC(=O)c1ccccc1-n1cc(CO[C@H]2O[C@@H]3O[C@@]4(C)CC[C@H]5[C@H](C)CC[C@@H]([C@H]2C)[C@@]35OO4)nn1`, the concentration for half-maximal inhibition (IC50) in the assay on A549 [1], with MDA-MB-231, in the assay on PC-3, with COLO 205, with A-431 and with K562 was 4.06 to 89.9 µM throughout.
For `COc1ccc(-c2ccc3c(c2)OCC(=O)N3Cc2cn(-c3cc(Cl)cc(Cl)c3)nn2)cc1`, the IC50 in the assay on HeLa is 19.5 µM; in the assay on MCF7, 21.8 µM.
On to `CO[C@H]1C[C@@H]2CC[C@@H](C)[C@@](O)(O2)C(=O)C(=O)N2CCCC[C@H]2C(=O)O[C@H]([C@H](C)C[C@@H]2CC[C@@H](O)[C@H](OC)C2)CC(=O)[C@H](C)/C=C(\C)[C@@H](O)[C@@H](OC)C(=O)[C@H](C)C[C@H](C)/C=C/C=C/C=C/1C` [SIROLIMUS], for which the half-maximal inhibitory concentration (IC50) in the assay on A549 [2] and in the assay on MCF7 was 18.7 to 35.1 µM each time.
On to `C[C@H]1[C@@H](OCc2cn(-c3ccc(O)cc3)nn2)O[C@@H]2O[C@@]3(C)CC[C@H]4[C@H](C)CC[C@@H]1[C@@]24OO3`, for which the half-maximal inhibitory concentration (IC50) in the assay with A549 [1], in the assay on MDA-MB-231, with PC-3, in the assay with COLO 205, with A-431 and with K562 was 4.06 to 36.6 µM throughout.
In the case of `CC1CCCCN1C(=O)c1cccc(-n2cc(CO[C@H]3O[C@@H]4O[C@@]5(C)CC[C@H]6[C@H](C)CC[C@@H]([C@H]3C)[C@@]46OO5)nn2)c1` (stereo partly drawn), the half-inhibitory concentration (IC50) in the assay with P388, in the assay with Lu1, with MCF7 and in the assay with HL-60 was 2.5 to 176 µM each time.
As to `CCN(CC)C(=O)c1cccc(-n2cc(CO[C@H]3O[C@@H]4O[C@@]5(C)CC[C@H]6[C@H](C)CC[C@@H]([C@H]3C)[C@@]46OO5)nn2)c1`, the half-inhibitory concentration (IC50) in the assay on P388, in the assay on Lu1, with MCF7 and in the assay on HL-60 was 2.5 to 176 µM each time.
On to `COc1ccc(-n2cc(CO[C@H]3O[C@@H]4O[C@@]5(C)CC[C@H]6[C@H](C)CC[C@@H]([C@H]3C)[C@@]46OO5)nn2)cc1`, for which the concentration for half-maximal inhibition (IC50) with A549 [1], with MDA-MB-231, in the assay with PC-3, in the assay on COLO 205, in the assay on A-431 and in the assay on K562 was 4.06 to 89.9 µM each time.
With `C[C@H]1[C@@H](OCc2cn(-c3cccc(C(=O)N4CCN(C)CC4)c3)nn2)O[C@@H]2O[C@@]3(C)CC[C@H]4[C@H](C)CC[C@@H]1[C@@]24OO3`, the IC50 with P388, in the assay on Lu1, in the assay on MCF7 and in the assay on HL-60 was 2.5 to 176 µM in each case.
Take `CCN1CCN(C(=O)c2ccc(-n3cc(CO[C@H]4O[C@@H]5O[C@@]6(C)CC[C@H]7[C@H](C)CC[C@@H]([C@H]4C)[C@@]57OO6)nn3)cc2)CC1`: the 50% inhibitory concentration (IC50) in the assay with P388, in the assay on Lu1, in the assay on MCF7 and in the assay on HL-60 was 2.5 to 176 µM in each case.
As for `C[C@H]1[C@@H](OCc2cn(-c3ccc(C(=O)N4CCCC4)cc3)nn2)O[C@@H]2O[C@@]3(C)CC[C@H]4[C@H](C)CC[C@@H]1[C@@]24OO3`, the 50% inhibitory concentration (IC50) in the assay with P388, with Lu1, with MCF7 and with HL-60 was 2.5 to 176 µM in each case.
On to `C[C@H]1[C@@H](OCc2cn(-c3ccc(C(=O)N4CCN(C)CC4)cc3)nn2)O[C@@H]2O[C@@]3(C)CC[C@H]4[C@H](C)CC[C@@H]1[C@@]24OO3`, for which the half-inhibitory concentration (IC50) in the assay on P388, with Lu1, in the assay with MCF7 and in the assay on HL-60 was 2.5 to 176 µM each time.
For the compound `C[C@H]1[C@@H](OCc2cn(-c3ccc(C(=O)N4CCCCC4)cc3)nn2)O[C@@H]2O[C@@]3(C)CC[C@H]4[C@H](C)CC[C@@H]1[C@@]24OO3`, the half-maximal inhibitory concentration (IC50) in the assay with P388, in the assay on Lu1, in the assay with MCF7 and with HL-60 was 2.5 to 176 µM each time.
With `COc1cc(-c2ccccc2Cl)cc(-c2nnn(Cc3ccccc3)c2C)n1`, the values for the IC50 in the assay with A549 [1], in the assay on MDA-MB-231 and with PC-3 were 42.6 µg/mL, 42.3 µg/mL and 28.2 µg/mL, respectively.
With `CC1CCCCN1C(=O)c1ccc(-n2cc(CO[C@H]3O[C@@H]4O[C@@]5(C)CC[C@H]6[C@H](C)CC[C@@H]([C@H]3C)[C@@]46OO5)nn2)cc1` (stereo partly drawn), the IC50 in the assay on P388, in the assay on Lu1, with MCF7 and in the assay with HL-60 was 2.5 to 176 µM throughout.
On to `C[C@H]1[C@@H](OCc2cn(-c3ccc(C(=O)N4CCN(c5ccccc5)CC4)cc3)nn2)O[C@@H]2O[C@@]3(C)CC[C@H]4[C@H](C)CC[C@@H]1[C@@]24OO3`, for which the IC50 with P388, with Lu1, with MCF7 and with HL-60 was 2.5 to 176 µM each time.
Regarding `C[C@H]1[C@@H](OCc2cn(-c3cccc(C(=O)N4CCCCC4)c3)nn2)O[C@@H]2O[C@@]3(C)CC[C@H]4[C@H](C)CC[C@@H]1[C@@]24OO3`, the IC50 in the assay on P388, in the assay with Lu1, in the assay with MCF7 and with HL-60 was 2.5 to 176 µM throughout.
For `CCC1(CCn2cc(COc3ccc(C)cc3)nn2)OCCc2c1[nH]c1ccccc21` (stereo not drawn), the concentration for half-maximal inhibition (IC50) in the assay with A549 [2] stood at 3.65 µM.
`CCN1CCN(C(=O)c2cccc(-n3cc(CO[C@H]4O[C@@H]5O[C@@]6(C)CC[C@H]7[C@H](C)CC[C@@H]([C@H]4C)[C@@]57OO6)nn3)c2)CC1`: the IC50 with P388, in the assay on Lu1, in the assay on MCF7 and with HL-60 was 2.5 to 176 µM each time.
Compound `CCC1(CCn2cc(COc3ccccc3)nn2)OCCc2c1[nH]c1ccccc21` (stereo not drawn) yielded an IC50 in the assay on A549 [2] of 3.29 µM.
Turning to `C[C@H]1[C@@H](OCc2cn(-c3cccc(C(=O)N4CCOCC4)c3)nn2)O[C@@H]2O[C@@]3(C)CC[C@H]4[C@H](C)CC[C@@H]1[C@@]24OO3`, the half-inhibitory concentration (IC50) with P388, in the assay with Lu1, in the assay on MCF7 and with HL-60 was 2.5 to 176 µM throughout.
Consider `CC[C@H]1OC(=O)[C@H](C)[C@@H](O[C@H]2C[C@@](C)(OC)[C@@](C)(CN(C)Cc3ccc(-c4cn(CCCCCCC(=O)NO)nn4)cc3)[C@H](C)O2)[C@H](C)[C@@H](O)[C@](C)(OC)C[C@@H](C)C(=O)[C@H](C)[C@@H](O)[C@]1(C)O`, for which the IC50 came to 0.99 µM in the assay on A549 [2] and 0.69 µM in the assay on MCF7.
For the compound `C[C@@H]1CC[C@H]2C[C@@H](OCc3cn(-c4ccnc5cc(Cl)ccc45)nn3)O[C@@H]3O[C@@]4(C)CC[C@@H]1[C@@]23OO4`, the IC50 in the assay with P388, in the assay with Lu1, in the assay with MCF7 and in the assay on HL-60 was 5.7 to 19.5 µM in each case.
As to `C[C@H]1[C@@H](OCc2cn(-c3ccc(C(=O)N4CCOCC4)cc3)nn2)O[C@@H]2O[C@@]3(C)CC[C@H]4[C@H](C)CC[C@@H]1[C@@]24OO3`, the IC50 with P388, in the assay with Lu1, in the assay with MCF7 and in the assay on HL-60 was 2.5 to 176 µM throughout.
As to `CC1CCN(C(=O)c2cccc(-n3cc(CO[C@H]4O[C@@H]5O[C@@]6(C)CC[C@H]7[C@H](C)CC[C@@H]([C@H]4C)[C@@]57OO6)nn3)c2)CC1`, the IC50 in the assay with P388, in the assay with Lu1, in the assay with MCF7 and in the assay on HL-60 was 2.5 to 176 µM each time.
With `C[C@H]1[C@@H](OCc2cn(-c3cccc(C(=O)N4CCN(c5ccccc5)CC4)c3)nn2)O[C@@H]2O[C@@]3(C)CC[C@H]4[C@H](C)CC[C@@H]1[C@@]24OO3`, the IC50 in the assay with P388, with Lu1, in the assay on MCF7 and in the assay on HL-60 was 2.5 to 176 µM throughout.
On to `C[C@H]1[C@@H](OCc2cn(-c3cccc(C(=O)N4CCCC4)c3)nn2)O[C@@H]2O[C@@]3(C)CC[C@H]4[C@H](C)CC[C@@H]1[C@@]24OO3`, for which the IC50 in the assay with P388, in the assay on Lu1, in the assay with MCF7 and with HL-60 was 2.5 to 176 µM in each case.
Regarding `CC1CCN(C(=O)c2ccc(-n3cc(CO[C@H]4O[C@@H]5O[C@@]6(C)CC[C@H]7[C@H](C)CC[C@@H]([C@H]4C)[C@@]57OO6)nn3)cc2)CC1`, the IC50 in the assay on P388, in the assay on Lu1, in the assay with MCF7 and in the assay with HL-60 was 2.5 to 4.7 µM in each case.
Consider `COc1ccc(-n2cc(Cn3c(=O)sc4cc(Br)ccc43)nn2)cc1`, for which the IC50 in the assay on HeLa was 12.2 µM; in the assay on MCF7, 17.5 µM.
